Test results: US4753952A, “2-acyl-3-aminomethyl-1,2,3,4-tetrahydroquinolines” (Dr. Lo. Zambeletti S.p.A., priority 1985, dated 1988)
Counter-ions that a name gives are not always drawn. Like-named read-outs stand apart in the source and are kept apart here.

Legend:
Mouse tail flick = Mouse tail flick test; type: in vivo, mouse (male Charles River); details: s.c., 30 min after dosing, mice doubling the initial reaction time; for ED50: Mus musculus, sc, 0.5 h, read-out: IN VIVO TESTS - ED50, Mouse tail flick
Procedure: (§1) Inhibition of contraction in electrically stimulated rabbit vas deferens indicate Kappa receptor agonism.
Tail-flick test (Modified from the procedure published by D'Amour et al., J. Pharm. Exptl. Ther. 72, 74/1941)
Male Charles River mice, average weight 26 g, are used. Selection is carried out before beginning of experiments: only mice whose reaction time is less than 8 sec are used. They are randomly distributed into groups of 10 and dosed with compounds under test, with positive and negative controls being included.
Compounds under test are administered subcutaneously in isotonic saline in a volume of 20 ml.Kg^-1. 30 min later mice are placed again under heat source (Socrel apparatus) and reaction time is recorded.
Analgesic activity of the test compound is expressed as the percent number of mice doubling the initial time within a group. [formula]

[1] = molecular target: T1, k (Kappa) opioid receptor (Cavia porcellus, UniProt P41144); assay: Radio receptor binding to k sites (tritiated Ethylketocyclazocine); parameters: species or system guinea pig
T1 construct: fresh guinea pig brain homogenate; from tissue; host or cells: guinea pig whole brain without cerebellum, washed membrane homogenate
T1 sequence (P41144 whole entry): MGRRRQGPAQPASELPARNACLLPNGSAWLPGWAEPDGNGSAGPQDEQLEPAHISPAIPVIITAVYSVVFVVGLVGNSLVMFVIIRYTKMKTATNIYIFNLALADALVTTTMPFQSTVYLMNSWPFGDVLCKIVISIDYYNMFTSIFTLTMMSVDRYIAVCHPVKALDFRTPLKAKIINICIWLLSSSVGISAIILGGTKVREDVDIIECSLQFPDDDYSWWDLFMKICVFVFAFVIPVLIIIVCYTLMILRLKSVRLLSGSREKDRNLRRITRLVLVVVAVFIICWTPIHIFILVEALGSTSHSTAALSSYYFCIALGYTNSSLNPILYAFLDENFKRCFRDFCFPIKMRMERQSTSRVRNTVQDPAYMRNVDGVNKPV
Procedure: Radio receptor binding to μ and k sites is performed on fresh guinea pig brain homogenate prepared according to Kosterlitz.
(§2) […] brain without cerebellum is homogenized in 50 mM, Tris-buffer (pH 7.4 at 0° C.) and centrifuged at 49,000×g×10 min. The pellet is then resuspended in the same buffer, incubated at 37° C. for 45 min. and centrifuged again.
(§3) 1.9 ml of the final homogenate (1:100 in Tris-pH 7.4, 0° C.) is used for the binding assay.
The binding of tritiated Ethylketocyclazocine to brain homogenate is measured in the presence of 100 nanomolar D-Ala-D-LeuEnkephalin (DADLE) and 100 nanomolar DAGO, added to saturate the δ and μ opioid receptors respectively.
Final homogenate with solutions of the cold ligand and of the labelled ligand is incubated for 40 min at 25° C., filtered through Whatman GF/C glass filter discs and washed.
The radioactivity bound to the filters is counted by liquid scintillation spectrophotometry.
(§4) A concentration of radioligant near KD is used in the binding assays evaluating our compounds.

μ receptor = molecular target: T2, μ receptor (Cavia porcellus, UniProt A0ACM8Q262); assay: Radio receptor binding to μ sites (3H-DAGO); details: guinea pig brain homogenate without cerebellum, 25° C., 40 min, pH 7.4
T2 construct: 3H-DAGO (DAMGO) displacement
T2 sequence (A0ACM8Q262 1-400): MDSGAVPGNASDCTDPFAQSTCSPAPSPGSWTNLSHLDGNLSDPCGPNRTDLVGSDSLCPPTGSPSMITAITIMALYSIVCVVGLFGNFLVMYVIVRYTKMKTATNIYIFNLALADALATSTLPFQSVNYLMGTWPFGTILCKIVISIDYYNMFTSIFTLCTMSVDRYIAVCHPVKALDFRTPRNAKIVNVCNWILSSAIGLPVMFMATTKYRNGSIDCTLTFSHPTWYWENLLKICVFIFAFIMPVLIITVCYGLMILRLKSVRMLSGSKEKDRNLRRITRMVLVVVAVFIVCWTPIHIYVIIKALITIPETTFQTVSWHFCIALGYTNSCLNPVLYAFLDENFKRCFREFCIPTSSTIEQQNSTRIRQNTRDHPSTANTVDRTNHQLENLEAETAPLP
Procedure: Radio receptor binding to μ and k sites is performed on fresh guinea pig brain homogenate prepared according to Kosterlitz. (1981)
as §2, §3
Binding to μ sites (Magnan J., 1982):
^3 H [D-Ala^2, MePhe^4, Gly-ol^5 ] Enkephalin (^3 H-DAGO), an enkephalin analogue that binds selectively to μ receptor, is added to the biological substrate and incubated at 25° C. for 40 min., filtered through Whatman GF-C and washed with ice-cold Tris-buffer. The filters are then dried, solubilized in Filtercount and the radioactivity monitored. Non specific binding is determined in the presence of 10^-6 M Naloxone.
For the calculation of the kinetic parameters of the binding of labelled and unlabelled ligands, the equilibrium dissociation constant (KD), and the inhibition constant (Ki) and the maximum number of binding sites (B max) are determined from saturation curves and competition experiments (Hill 1910; Scatchard 1949; Cheng and Prusoff 1973; Gillan et al. 1980).
as §4

[2] = test system: Mouse p-phenylquinone writhing; assay: Mouse p-phenylquinone writhing test; type: in vivo, mouse (male Charles River); details: p-phenylquinone 0.02% i.p. 20 min after dosing, animals completely protected in 8 min; for ED50: Mus musculus, sc, read-out: IN VIVO TESTS - ED50, Mouse p-phenylquinone writhing; for IN VIVO TESTS - ED50, Mouse p-phenylquinone writhing: s.c.
Procedure: as §1
Writhing test (According to Siegmund et al., Proc. Soc. Exptl. Biol. 95, 729/1957)
Male Charles River mice, average weight 26 g, are randomly distributed into groups of 10 and are dosed subcutaneously with compounds under test, dissolved in isotonic saline (20 ml.Kg^-1). The experiments are carried out in the presence of positive and negative controls. 20 min after the mice are injected intraperitoneally with p-phenylquinone 0.02%, 10 ml.Kg^-1, maintained at 37° C. in a water bath. The mice are placed in a perspex compartmented observation box and observed for a period of 8 min after injection of p-phenylquinone. The dose-response curve is obtained by basing observation on the all or none response.

Row | SMILES | ED50 (Mouse tail flick) | Ki [1] | Ki (μ receptor) | ED50 [2] | IN VIVO TESTS - ED50, Mouse tail flick (Mouse tail flick) | IN VIVO TESTS - ED50, Mouse p-phenylquinone writhing [2] | Ki ([1]; guinea pig brain homogenate without cerebellum, tritiated Ethylketocyclazocine with 100 nM DADLE and 100 nM DAGO, 25° C., 40 min, read-out: RECEPTOR BINDING - Ki, k)
1 | O=C(Cc1ccc(Cl)c(Cl)c1)N1Cc2ccccc2CC1CN1CCCC1 (racemic) [Example 1, (R,S)-2-(3,4-dichlorophenyl)acetyl-3-(1-pyrrolidinyl)methyl-1,2,3,4-tetrahydroisoquinoline hydrochloride] | 3.12 mg/kg | 9.45 nM | 960 nM | 2.64 mg/kg | – | – | –
2 | CN(C)CC1Cc2ccccc2CN1C(=O)Cc1ccc(Cl)c(Cl)c1 (racemic) [Example 4, (R,S)-2-(3,4-dichlorophenylacetyl)-3-dimethylaminomethyl-1,2,3,4-tetrahydroisoquinoline hydrochloride] | 7.2 mg/kg | 17.5 nM | 1360 nM | 3.76 mg/kg | – | – | –
3 | O=C(Cc1ccc(Cl)c(Cl)c1)N1Cc2ccccc2C[C@@H]1CN1CCCC1 [Example 2, (R)-2-(3,4-dichlorophenyl)acetyl-3-(1-pyrrolidinyl)methyl-1-2,3,4-tetrahydroisoquinoline hydrochloride] | – | > 1 nM | 1420 nM | – | N.E. | N.E. | –
4 | O=C(Cc1ccc(Cl)c(Cl)c1)N1Cc2ccccc2C[C@H]1CN1CCCC1 [Example 3, (S)-2-(3,4-dichlorophenyl)acetyl-3-(1-pyrrolidinyl)methyl-1,2,3,4-tetrahydroisoquinoline hydrochloride] | 1.58 mg/kg | 8.03 nM | 764 nM | 1.43 mg/kg | – | – | –
5 | CN(C)C[C@H]1Cc2ccccc2CN1C(=O)Cc1ccc(Cl)c(Cl)c1 [Example 5, (R)-2-(3,4-dichlorophenyl)acetyl-3-dimethylaminomethyl-1,2,3,4-tetrahydroisoquinoline hydrochloride] | – | – | 2560 nM | – | N.E. | N.E. | 637 nM
6 | CN(C)C[C@@H]1Cc2ccccc2CN1C(=O)Cc1ccc(Cl)c(Cl)c1 [Example 6, (S)-2-(3,4-dichlorophenylacetyl)-3-dimethylaminomethyl-1,2,3,4-tetrahydroisoquinoline hydrochloride] | 1.65 mg/kg | 11 nM | 1080 nM | 2.05 mg/kg | – | – | –
